From patent US7258861B2, “TNF-derived peptides for use in treating oedema” (Innogenetics N.V., priority 2001, dated 2007)
Where “and” joins values, the source holds several entries; their conditions need not be identical. Identical values can stand only once. Positions of bridges follow the written chain, without caps; N, C: chain ends. No end group written: not given here.

Key:
isolated rat lungs [1] = test system: isolated rat lungs
Description: (§1) Rats. For the ex vivo experiments, 31 Sprague-Dawley rats (300 to 350 g) were tracheotomized and mechanically ventilated (40% oxygen in air) under isoflurane anesthesia. The experimental protocol was reviewed and approved by the Ethics Committee for Animal Research and by the Veterinary Office of our institution. The femoral vessels were cannulated for blood sampling, fluid replacement, and continuous arterial blood pressure monitoring. Following anticoagulation (1.5 IU/g i.v. heparin), 20 ml of blood were withdrawn and replaced by an equal volume of dextran-40 (Macrodex 10% in normosaline) to serve as priming volume for the isolated perfusion circuit. The heart-lung block was prepared as described by Ma et al., 2000, weighed and assigned to one of four groups. […] The lungs were suspended, mechanically ventilated, and perfused at constant pressure with autologous blood as described by Ma et al., 2000.
(§2) An inspiratory and expiratory quasi-static pressure-volume (PV) curve was performed at the end of the 2-hour reperfusion period by inflating and then deflating the lungs at a constant rate (0.3 ml/sec) using an automated infusion pump. A sigh was applied in all groups every 15 minutes to minimize atelectasis formation. The blood pH was maintained between 7.3 and 7.5 and, if necessary, corrected with sodium bicarbonate 8.4% or a change of the inspired CO2 as required by the blood gas analysis. Every 30 minutes, a blood sample was collected for blood gas analysis as well as for hematocrit and electrolyte concentration.
(§3) Inclusion criteria. Immediately following the start of reperfusion, the preparation had to fulfill three technical inclusion criteria: • 1) left atrial pressure (LAP) 5-10 mmHg; • 2) peak airway pressure (AWP) <15 cmH2O; and • 3) pulmonary blood flow (PBF) >10 ml/min. […] The included lungs were then flooded with gentle intratracheal instillation of 2 ml normal saline and the recorded variables measured for 2 subsequent hours.
(§4) Histological analysis. Random lung samples were fixed for light and electron microscopy and analyzed by pathologists blinded to the lung's protocol group assignment.

isolated rat lungs [2] = assay: Isolated blood perfused flooded rat lung (weight, lung mechanics, PV curves, histology)
Description: as §1, §2, §3, §4

[3] = test system: ex vivo instilled rat lung; assay: Ex vivo rat flooded lung, model of hydrostatic edema
Description: In this model edema is induced by instillating 2 ml of 0.9% NaCl solution intratracheally. Alternatively, edema formation can be modulated by varying the height of the venous outflow and the perfusion buffer containing reservoir, or alternatively by varying the time the lung is exposed to the elevated pressure. […] The clearance of alveolar fluid from the lung is calculated by means of measuring the concentration of HSA, which is added to the instillate over time. Alternatively, the over time weight loss as a measure of edema resorption (high weight loss is high liquid clearance), of the artificially instilled lung can be measured. The lung tidal volume, compliance and weight are monitored continuously during the experiment. At the end of the experiment bronchoalveolar fluid and supernatant of lung homogenate is taken for measurement of inflammatory mediators.
The lungs of female Wistar rats (weight 200–250 g; Harlan-Winkelmann, Borchen, Germany) are prepared after terminal i.p. anesthesia by 160 mg/kg pentobarbitural —Na (Merial Ltd, Halbermoos, Germany) and perfused as described by Uhlig and Wolin (1994), and by Uhlig and von Bethmann (1997). All equipment is obtained from Hugo Sachs Electronics (March-Hugstetten, Germany). […] As perfusion medium, a Krebs-Henseleit buffer (38° C.) containing 2% bovine serum albumin (Fraction V, Scrva. Heidelberg, Germany), 0.1% glucose (Riedel-de-Haën Inc., Seelze, Germany), and 0.3% HEPES (ICN Biomedicals Inc., Ohio, USA) is used. The total amount of recirculating buffer is 100 ml. The lungs are suspended by the trachea and ventilated by negative pressure ventilation (inspiratory pressure: −7 cm H2O, expiratory pressure: −2 cm H2O) with 80 breaths per minute resulting in a tidal volume of approximately 2 ml. Every 5 minutes, a deep inspiratory breath (−20 cm H2O) is performed. Artificial thorax chamber pressure is measured with a differential pressure transducer (Validyne DP 45-14), and an air flow velocity with a pneumotachograh tube (Fleisch Type 0000) connected to a differential pressure transducer (Validyne DP 45-15). The perfusate flow (Narcomatic RT-500) and the arterial and venous pressure (Statham P23BB) are continuously monitored. The pH of the perfusate before entering the lung is kept at 7.25 to 7.35 by automatic bubbling of the buffer with CO2 as soon as the pH exceeds this range. A weight transducer is integrated into the chamber lid which allows the continuous assessment of lung weight. Data are recorded on a Pentium II computer using the Mathlab Sofware package (Mathworks, Inc., Nattick Mass., USA). For lung mechanics, the data are analyzed by applying the following formula: P=1/C*VT+RLdV/dT
Where P is chamber pressure, C pulmonary compliance, VT tidal volume, and RL airway resistance. All lung physiology parameters were normalized to time point 0, i.e. after the end of the preconditioning perfusion of 40 minutes.

[4] = test system: left lung of Fischer (F344) rats; assay: Rat model of lung reperfusion injury (warm ischemia and reperfusion); type: in vivo
Description: In a modification of the model of Ohno et al. (1993) male Fischer (F344) rats (200–250 g) undergo clamping of the left pulmonary artery, pulmonary vein and main bronchus for 36 minutes of warm ischemia. After reperfusion of the left lung, the right lung is occluded to assess the function of the left lung for 90 minutes. The peptide is given at 3 minutes after reperfusion by either instillation or intravenous injection via the subclavian vein.
• 1. Anaesthesia of the rat in a glass chamber, 4% Halothane and Oxygen 4/min. • 2. Intubation of the rat with a 1.8 mm catheter, • 3. Shaving the fur on the abdomen and left side of the animal. • 4. Ventilation via the tracheal tube 100/min, 2.5 ml 20% oxygen, Harvard Rodent Ventilator (Harvard Apparatus, South Natick, Mass.), PEEP 5 mm H2O. • 5. A left thoracotomy is carried out in the in 4th intercostal space. • 6. Dissection of the left lung hilar region. • 7. Microvascular clips are placed around the left pulmonary artery (PA), Pulmonary vein (PV) and left main bronchus (B) to induce warm ischemia of the left lung. Small circulation is still ongoing through the right lung. This is the start of the Warm Ischemia Time (WIT). • 8. Anaesthaesia is maintained with 2% Halothane, 40% Oxygen. • 9. A provisory Z suture is made to temporary close the thoracotomy and a gaze sponge is put on the animal to decrease warmth loss. • 10. Near the end of the WIT, a thoracophrenolaparatomy in the midline with thorough electrocaterisation. (two peans on the sternum). • 11. Putting 2-0 Softsilk on the trachea around the intubation tube. • 12. Dissection of the right hilar elements. • 13. Taking away microvascular clips from the left hilar elements. End of WIT of the left lung after 36 minutes. • 14. Putting microvascular clips on right PA and B. Small circulation only through left lung. Start developing of left oedema time (LLOT). • 15. After 3 minutes of LLOT: instillation of the drug in 0.5 ml of 0.9% saline solution (Baxter) or injection of the drug in 0.25–0.3 ml of 0.9% saline through the subclavian vein. • 16. After 6, 30, 60 and 90 minutes of LLOT, puncture of the Aortic Arch (AA) with needle for blood gas analysis in Radiometer ABL 700 Serie, (Denmark). • 17. After each puncture the AA puncture hole is pressed with a cotton swab. • 18. Blood gas analysis is taken every time from AA (the heart rate should be over 60). • 19. After the last blood gas analysis (90 minutes), both lungs are flushed via the PA with 20 ml of 0.9% saline at a pressure of 20 cm H2O. […] The heart-lung block is excised for storage under formaline or in the freezer awaiting immunohistopathological analysis. Alternatively, the lung can be excised without flushing to assess wet to dry ratio's. Results (FIG. 7)

[5] = test system: transplanted left lung of rats; assay: Single left lung transplantation in syngeneic rats; type: in vivo, rat; conditions: 24 hours after transplantation; donor lung pre-treated by intratracheal application, 500 μg/kg
Description: Female Wistar of Fischer rats or weighting 250 to 260 g undergo orthotopic single left lung transplantation after 20 hours cold ischemia using a cuff technique for the vessel anastomoses and a conventional running suture for the bronchial anastomosis.
Donor procedure: Animals are anesthetized by intraperitoneal administration of pentobarbital (50 mg/kg) and heparinized (500 I.U./kg). A tracheotomy is performed and the animals are ventilated trough a cannula with 100% O2 by a Harvard rodent ventilator (Harvard apparatus, South Natick, Mass.) at a tidal volume of 10 ml/kg. […] Both lungs are flushed with 20 cc of low-potassium dextran-solution (LPD) (Perfadex®, Kabi Pharmacia, Sweden) at a pressure of 20 cm H2O. The trachea is then tied in end-inspiration. After removal of the heart-lung block, 14 gauge cuffs are placed around the pulmonary artery and vein, and the vessels are inverted and tied onto the cuff. The lung is stored in LPD solution at 4° C. until implantation.
Recipient procedure: Transplantation was performed after 20 hours of cold ischemia (4° C.). The recipient is anesthetized by breathing Halothane in a glass chamber, intubated, and anesthesia is maintained with Halothane 2%. A left lateral thoracotomy is performed in the 4th intercostal space. The left hilium is dissected. […]

## CGPKDTPEGAELKPWYC (disulfide 1-17; listed as Mus musculus) [cyclic mu Ltip]
Isolated rat lungs [1]
  leukocyte infiltration (lung histology): did not show this increased leukocyte infiltration
Isolated rat lungs [2]; 2 hours reperfusion after 2 ml saline, TNF 5 μg, peptides 1 mg
  lung weight change over time after alveolar flooding: progressively decreased in weight
Isolated rat lungs [2]; 2 hours reperfusion, TNF 5 μg, peptides 1 mg
  lung mechanics (peak AWP, Cdyn, Raw) after alveolar flooding: progressive improvement in lung mechanics
Isolated rat lungs [2]; at 2 hours, 1 mg
  fraction of intratracheal instilled saline lost: approximately half
Isolated rat lungs [2]; end of 2-hour reperfusion, 1 mg
  inflation volume at lower inflection point: 3.4 ± 0.9 mL
Isolated rat lungs [2]; end of 2-hour reperfusion, TNF 5 μg, peptide 1 mg
  lower inflection point of inspiratory quasi-static PV curve: 17.2±1.6 cmH2O

## CGQRETPEGAEAKPWYC [cyclic hum Ltip]
[3]; after intratracheal instillation, summary in words
  clearing alveolar fluid content ex vivo: capable of clearing alveolar fluid content
[3]; measured 80 minutes after instillation, summary in words
  activity in fluid clearance: equally active
[3]; synthetic peptide 1000 μg/lung
  Weight loss of ex vivo instilled rat lung over 80 min: 658 mg and 585 mg and 663 mg and 648 mg and 575 mg and 931 mg and 900 mg and 918 mg
  Weight loss of ex vivo instilled rat lung over 100 min: 1009 mg and 744 mg and 685 mg and 663 mg and 758 mg and 694 mg and 1004 mg and 1000 mg
[4]; 500 μg/kg to 5 μg/kg, data not shown
  pCO2 levels: lower pCO2 levels
[4]; 6 to 90 minutes of LLOT, cyclic hum Ltip 500 μg/kg to 5 μg/kg, hum mut Tip 500 μg/kg
  pO2 blood gas levels: significantly much better pO2 levels
[4]; iv application
  gain in pO2 blood gas: significantly increased gain in pO2 blood gas
[5]
  pO2: 395+/−95 mmHg
